For orientation: kinetic solubility means the concentration staying in solution when a stock, usually in DMSO, is diluted into the medium.

Each structure is given as a SMILES string. Values after ≈ are worked out from the molar mass of the structure shown.

For this series the following is noted: buffer; pH 7.4; 200.0 µM.
Compound `O=C(COC(=O)c1ccco1)Nc1cc(S(=O)(=O)N2CCCCC2)ccc1Cl` returned a kinetic solubility of 6.7 µg/mL (≈ 15.7 µM). The result for `Cc1c(C)n(CC(O)CN2CCN(C)CC2)c2ccccc12` (configuration not stated) reads 43.3 µg/mL (≈ 144 µM); that for `CCC(=O)Nc1cccc(C(=O)c2ccc(C)c(C)c2)c1`, 28 µg/mL (≈ 99.5 µM). The result for `O=C1CSC(c2ccccc2)N1Cc1ccccn1` (configuration not stated) reads more than 40.6 µg/mL; that for `COCCNC(=S)N(c1ccccc1)C(C)C`, more than 37.9 µg/mL. The compound `COc1cscc1C(N)=O` registered a kinetic solubility of 19.4 µg/mL (≈ 123 µM). The compound `CS(=O)(=NS(=O)(=O)c1ccc(Cl)cc1)c1ccccc1` (configuration not stated) had a solubility (kinetic) of more than 49.5 µg/mL.

The compound `O=C1CCc2ccccc2N1Cc1ccccc1` registered a solubility (kinetic) of 32.5 µg/mL (≈ 137 µM).

For `O=C1CCCC2=C1C(c1ccccc1)CC(=O)N2c1ccc(F)cc1F` (configuration not stated), the solubility (kinetic) came out at 45.8 µg/mL (≈ 130 µM).

`CC(=O)c1ccc2noc(-c3cccc(F)c3)c2c1` had a kinetic solubility of 6.5 µg/mL (≈ 25.5 µM). As for `CCOC(=O)/C(C#N)=C/C=C1/C=CC=CN1C`, the figure is more than 34.5 µg/mL; as for `Cc1cccc(C)c1NC(=O)CNC(=O)CNC(=O)c1ccc2c(c1)OCO2`, more than 57.5 µg/mL.

Compound `CC1(C)OC(C)(C)/C(=C\c2ccc(OCC(N)=O)cc2)C1=O` displayed a solubility (kinetic) of 28 µg/mL (≈ 92.3 µM). As for `CC1=N/C(=C/c2ccco2)C(=O)O1`, the figure is more than 26.6 µg/mL; as for `COc1ccc2nc(C)cc(Nc3cccc(C(=O)O)c3)c2c1`, 3.3 µg/mL (≈ 10.7 µM).

Compound `O=CNCCc1nc2ccccc2n1CCc1ccccc1` had a kinetic solubility of 41 µg/mL (≈ 140 µM). The result for `CC1CC(C)CN(C(=O)CN2C(=O)NC3(CCCCCC3)C2=O)C1` (configuration not stated) reads more than 50.3 µg/mL; that for `CN(C)C(=S)NC(=O)C12CC3CC(C)(CC(C)(C3)C1)C2`, 27.4 µg/mL (≈ 93.1 µM). The result for `CCCN1CN=C(NS(=O)(=O)c2ccc(C)cc2)NC1` reads more than 44.5 µg/mL. As for `O=C(NCc1ccc2c(c1)OCO2)c1ccc(Br)s1`, the figure is 1.9 µg/mL (≈ 5.58 µM); as for `COc1ccc(C(=O)O)cc1S(=O)(=O)NC1CCN(Cc2ccccc2)CC1`, 59.1 µg/mL (≈ 146 µM). In turn, `COc1ccccc1C(=O)NCCNc1ccc([N+](=O)[O-])cc1Cl` showed a kinetic solubility of 0.7 µg/mL (≈ 2 µM).

As for `CC1(C)CC(=O)C(CC(=O)NC2CCCc3ccccc32)C(=O)C1` (configuration not stated), the solubility (kinetic) is more than 49.1 µg/mL.

For the compound `O=[N+]([O-])c1ccc(S(=O)(=O)Nc2nc(-c3ccccc3)cs2)cc1`, the solubility (kinetic) is more than 54.2 µg/mL. The result for `O=C(CCN1C(=O)c2ccccc2C1=O)CN1CCOCC1` reads 36.5 µg/mL (≈ 121 µM); that for `COc1ccc(C(=O)N2CCN(CC(=O)N3CCOCC3)CC2)cc1`, 40.6 µg/mL (≈ 117 µM).

With `CCC1(C)NC(C(=O)O)Cc2c1[nH]c1ccccc21` (configuration not stated), the solubility (kinetic) was more than 38.7 µg/mL. As for `C=CCOc1ccc(C=Nc2ccc(OC)cc2)c(O)c1`, the figure is 6.5 µg/mL (≈ 22.9 µM); as for `COc1cc(NC(=O)c2ccccn2)cc(OC)c1OC`, more than 43.2 µg/mL. The result for `Nc1ccc(-c2cn3cccnc3n2)cc1` reads more than 31.5 µg/mL; that for `COc1ccccc1OCC(=O)Nc1ccc2c(c1)n(C)c(=O)n2C`, more than 51.2 µg/mL; that for `O=C(COc1ccc2ccc(=O)oc2c1)NCc1ccccn1`, more than 46.5 µg/mL. The result for `C=CCOC(=O)/C(=C/c1cccnc1)NC(=O)c1ccccc1` reads 43.4 µg/mL (≈ 141 µM).

Compound `O=C(CN1CCCCCC1)Nc1cc(C(F)(F)F)ccc1Cl` came in with a solubility (kinetic) of less than 0.4 µg/mL. Consider `COC(=O)Cc1ccc(NC(=S)Nc2cccc(C)n2)cc1`, for which the solubility (kinetic) came to 1.6 µg/mL (≈ 5.07 µM). `CCN(CC(=O)Nc1ccc2c(c1)OCCO2)CC(=O)Nc1ccc(C)c(S(=O)(=O)N(C)C)c1` came in with a solubility (kinetic) of 35.3 µg/mL (≈ 72 µM). The result for `O=C(Nc1ccccc1)N(C1=NCCC1)c1ccccc1` reads 5.4 µg/mL (≈ 19.3 µM); that for `COc1cccc(C2=NOC(C(=O)NCc3cccnc3)C2)c1` (configuration not stated), more than 46.7 µg/mL; that for `Cc1cccc2cc(CNCc3ccccc3)c(Cl)nc12`, 3.8 µg/mL (≈ 12.8 µM). As for `CS(=O)(=O)c1ccc2nc(NC(=O)C3CCCO3)sc2c1` (configuration not stated), the figure is 43.8 µg/mL (≈ 134 µM); as for `CN(CC(=O)NCc1ccccn1)S(=O)(=O)c1ccc(F)cc1`, more than 50.6 µg/mL. Compound `O=C(NCCC1=CCCCC1)c1cc2ccccc2oc1=O` registered a kinetic solubility of less than 0.6 µg/mL. As for `Cc1ccc(NC2=CC(=O)CC(C)(C)C2)cc1F`, the figure is 31.5 µg/mL (≈ 127 µM).

`O=C(NCCc1c[nH]c2ccccc12)/C(=C/c1cccnc1)NC(=O)c1ccco1` yielded a kinetic solubility of more than 60.1 µg/mL. As for `N#CCCN(Cc1cccnc1)C(=S)NC1CC2C=CC1C2` (configuration not stated), the figure is more than 46.9 µg/mL. As for `CC(=O)N1CCN(Cc2nc3cc(Cl)ccc3c(=O)[nH]2)CC1`, the kinetic solubility was more than 48.1 µg/mL. In the case of `COc1ccc(C(=O)N[C@H](C(=O)NCc2ccccc2)C(C)C)cc1`, the solubility (kinetic) was 5.2 µg/mL (≈ 15.3 µM).

`COc1ccc(NC(=O)C2CCCN(S(C)(=O)=O)C2)cc1` (configuration not stated): the solubility (kinetic) was 34.9 µg/mL (≈ 112 µM).

The compound `Cc1cc(C(=O)OCC(=O)N(C)c2ccccc2)c2ccccc2n1` returned a solubility (kinetic) of more than 50.2 µg/mL. As for `CCCCCCC1CC(=O)NC(=O)N1` (configuration not stated), the figure is 27.8 µg/mL (≈ 140 µM); as for `CN(C)S(=O)(=O)c1cccc(C(=O)NCC2CCCCC2)c1`, 2.8 µg/mL (≈ 8.63 µM). On to `COc1ccc(NC(=O)CN(C)C(=O)CC2CCCCC2)cc1`, for which the solubility (kinetic) was more than 47.8 µg/mL.

Source of the values: PubChem BioAssay AID1996.
